{"source": "paper PMC2783333", "about": "(Nature chemical biology, 2009)", "key": {"[1]": {"test_system": "MARTXVc CPD", "details": "cited from earlier work"}, "[2]": {"test_system": "P. luminescens TTO1 MARTX CPDs (Plu3217, Plu3324, Plu1341, Plu1344)", "type": "biochemical, Photorhabdus luminescens"}, "[3]": {"target": "V. vulnificus CMCP6 VV20479 MARTX CPD (Vibrio vulnificus, UniProt A0A2S3R7M0)", "type": "biochemical", "details": "10 µM InsP6"}, "[4]": {"test_system": "MARTXVc CPD", "type": "biochemical, Vibrio cholerae", "details": "read-out: AC50 (InsP6 for 50% cleavage)"}}, "note": "Where two headings read alike, the source gives them in different places."}
{"smiles": "Nc1nc2c(ncn2[C@@H]2O[C@H](COP(=O)(O)OP(=O)(O)OP(O)(O)=S)[C@@H](O)[C@H]2O)c(=O)[nH]1", "note": "[GTPγS, guanosine 5′-[γ-thio]triphosphate]", "values": [{"measurement": "potency as activator of the CPD", "setting": "[1]", "value": "much less potent activator"}]}
{"smiles": "O=P(O)(O)OC1C(OP(=O)(O)O)C(OP(=O)(O)O)C(OP(=O)(O)O)C(OP(=O)(O)O)C1OP(=O)(O)O", "note": "(centres unmarked) [InsP6, inositol hexakisphosphate]", "values": [{"measurement": "InsP6-dependent autoprocessing", "setting": "[2]", "value": "underwent InsP6-dependent autoprocessing"}, {"measurement": "AC50", "setting": "[1]; read-out: AC50 (InsP6 for half-maximal autocleavage)", "value": "0.91 ± 0.1", "unit": "nM"}, {"measurement": "InsP6-dependent autoprocessing", "setting": "[3]", "value": "underwent InsP6-dependent autoprocessing"}, {"measurement": "AC50", "setting": "[4]", "value": "0.76 ± 0.27", "unit": "nM"}]}
